The values that follow come from US6743440B1, “Polycyclic quinone and ionophore composition for the synergistic reduction of methane formation in ruminant animals” (Arkion Life Sciences LLC, priority 1999, dated 2004).

Marks after values point to notes of the source that are not given here.

The test system of the assay is rumen fluid. Description: in vitro batch culture ruminal fermentation. It counts as cell-based, steer. To be noted: for decrease of methane production compared to the control diet: dose effect experiment; for Hydrogen / Methane / NH3—N / TVFA (total volatile fatty acids) / Total Gas / VFA C2 (acetate) / VFA C3 (propionate) / VFA C4 (butyrate) / VFA C5 (valerate) / VFA Ci4 (isobutyrate) / VFA Ci5 (isovalerate): high sulfur diet (1.09% S), 24 h, MoO4 25 ppm, M 5 ppm, M + AQ 5 + 10 ppm.

Setting [1] is: AQ 10 ppm, Ionophores 5 ppm, AQ plus Ionophore 10 + 5 ppm.
Where [2] appears, read: intermediate and high levels of 9,10 AQ, P<0.05.

Take `O=C1c2ccccc2C(=O)c2ccccc21` [AQ, 9,10-anthraquinone]: where the note is “9,10 AQ dose effect experiment”, the “Total VFA relative to the control and untreated high sulfur diet” value is listed as “numerically but not statistically decreased”; the hydrogen concentration entry is listed as “unaffected”. Besides, the “decrease of methane production compared to the control diet” value (10 ppm 9,10 AQ) turned out to be 21%. The “decrease of methane production compared to the control diet” value (25 ppm 9,10 AQ) was found to be 41%. The “Methane Concentration” value under setting [1] came out at 265 Umole/24 hr. fermentation. The activity at 10 ppm (AQ 10 ppm, Ionophores 5 ppm, AQ plus Ionophore 10 + 5 ppm, control = 403, read-out: Methane concentration, Percent of Control) came to 66%. Under “AQ 10 ppm”, the Hydrogen is reported as 4.27^ab μMoles/24 h fermentation, the Methane is 265^b μMoles/24 h fermentation, the “NH3—N” value is on record as 37.2^a mg/dl and the “TVFA (total volatile fatty acids)” value was 118.0^c mM. Where the note is “AQ 10 ppm”, the “Total Gas” value is given as 89.2^cb mL/24 h fermentation, the “VFA C2 (acetate)” value is recorded as 48.4^d moles/100 mol, the “VFA C3 (propionate)” value was 28.1^b moles/100 mol and the “VFA C4 (butyrate)” value is given as 17.3^a moles/100 mol. Further, where the note is “AQ 10 ppm”, the “VFA C5 (valerate)” value was 3.3^b moles/100 mol, the “VFA Ci4 (isobutyrate)” value is 1.2^ab moles/100 mol and the “VFA Ci5 (isovalerate)” value is reported as 1.7^b moles/100 mol. Besides, the ammonia-N result (highest level of 9,10 AQ, P<0.05) is “decreased”. Further, the “percentages of C3, C4 and C5” value (intermediate and high levels of 9,10 AQ) is on record as “increased”. Further, under setting [2], the “molar proportion of C2” value is listed as “decreased” and the total gas produced result was “decreased”. For the same molecule, the “effect on fermentation end-products compared to the untreated diets” value (low level of 9,10 AQ (1 ppm)) is on record as “no effect”.
As for `[O]=[Mo](=[O])([O-])[O-]` [MoO4], where the note is “AQ 10 ppm”, the Hydrogen was 4.13^ab μMoles/24 h fermentation, the Methane is recorded as 451^a μMoles/24 h fermentation, the “NH3—N” value was 37.9^a mg/dl and the “TVFA (total volatile fatty acids)” value is listed as 123.9^b mM. Moreover, for the setting “AQ 10 ppm”, the “Total Gas” value is on record as 94.1^ab mL/24 h fermentation, the “VFA C2 (acetate)” value is recorded as 55.2^b moles/100 mol, the “VFA C3 (propionate)” value was 24.2^c moles/100 mol and the “VFA C4 (butyrate)” value is listed as 15.1^c moles/100 mol. For the same molecule, for the setting “AQ 10 ppm”, the “VFA C5 (valerate)” value is reported as 2.7^d moles/100 mol, the “VFA Ci4 (isobutyrate)” value was 1.2^b moles/100 mol and the “VFA Ci5 (isovalerate)” value was 1.6^b moles/100 mol.
Regarding `CC[C@@]1([C@H]2O[C@H]([C@H]3O[C@@](O)(CO)[C@H](C)C[C@@H]3C)C[C@H]2C)CC[C@H]([C@@]2(C)CC[C@]3(C[C@H](O)[C@@H](C)[C@@H]([C@H](C)[C@H](OC)[C@@H](C)C(=O)[O-])O3)O2)O1.[Na+]` [M, monensin sodium], the “Methane Concentration” value under setting [1] is listed as 299 Umole/24 hr. fermentation. Also, the “Methane concentration, Percent of Control” value (AQ 10 ppm, Ionophores 5 ppm, AQ plus Ionophore 10 + 5 ppm, control = 403) is listed as 74%. Under “AQ 10 ppm”, the Hydrogen was 4.17^ab μMoles/24 h fermentation, the Methane is reported as 299^b μMoles/24 h fermentation, the “NH3—N” value is given as 36.0^a mg/dl and the “TVFA (total volatile fatty acids)” value is listed as 117.5^c mM. Besides, for the setting “AQ 10 ppm”, the “Total Gas” value is on record as 85.2^c mL/24 h fermentation, the “VFA C2 (acetate)” value is 52.4^c moles/100 mol, the “VFA C3 (propionate)” value was 28.0^b moles/100 mol and the “VFA C4 (butyrate)” value is recorded as 13.6^d moles/100 mol. In addition, under “AQ 10 ppm”, the “VFA C5 (valerate)” value is recorded as 3.0^c moles/100 mol, the “VFA Ci4 (isobutyrate)” value was 1.3^ab moles/100 mol and the “VFA Ci5 (isovalerate)” value was 1.7^b moles/100 mol.
